Results reported in the supplement of paper PMC11208160.

Test: recombinant UMI read abundance after kanamycin selection (control-corrected) (log10(CPM+1)); higher = more efficient recombination; extreme values may be limits of the assay; sequences stand for … in AGTGCAGAGAAAATCGGCCAGTTTTCTCTGCCTGCAGTCCGCATGCCGTGGGACCCCTTGGGTTCTAACCTGTTGCCTAGATTTATGCAGCGGACTGCCTTTCTCCCAAAGTGATAAACCGG…AGGTTGGTTTCACT; site = the 11-nt donor
Procedure, shortened: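 Sequencing read counts were converted to CPM, averaged over two replicates and scaled by control-derived factors. Results are given as log10(CPM+1). The reads covered the donor–target junction of recombinant UMIs from a pooled Escherichia coli screen of donor and donor-binding-loop pairs for the IS621 bridge recombinase.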
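Further: IS621 bridge recombinase in Escherichia coli cells against a fixed T5 target plasmid.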

Sequence | recombinant UMI read abundance (log10)
TAGCTAGCATGGACCGGTTTTCCCGGTAATCCGTATTTGAA (site CAGCTAGCTTT) | 0.178
TAGCTAGCATGGACCGGTTTTCCCGGTAATCCGTATTTGAA (site GAGCTAGCTTT) | 0
TAGCTAGCATGGACCGGTTTTCCCGGTAATCCGTATTTGAA (site TAACTAGCTTT) | 0.822
TAGCTAGCATGGACCGGTTTTCCCGGTAATCCGTATTTGAA (site TACCTAGCTTT) | 0.015
TAGCTAGCATGGACCGGTTTTCCCGGTAATCCGTATTTGAA (site TAGATAGCTTT) | 0.0135
TAGCTAGCATGGACCGGTTTTCCCGGTAATCCGTATTTGAA (site TAGCAAGCTTT) | 0.00493
TAGCTAGCATGGACCGGTTTTCCCGGTAATCCGTATTTGAA (site TAGCCAGCTTT) | 0.0109
TAGCTAGCATGGACCGGTTTTCCCGGTAATCCGTATTTGAA (site TAGCGAGCTTT) | 0.0252
TAGCTAGCATGGACCGGTTTTCCCGGTAATCCGTATTTGAA (site TAGCTAACTTT) | 0.0471
TAGCTAGCATGGACCGGTTTTCCCGGTAATCCGTATTTGAA (site TAGCTACCTTT) | 0.0202
TAGCTAGCATGGACCGGTTTTCCCGGTAATCCGTATTTGAA (site TAGCTAGCTAT) | 0.502
TAGCTAGCATGGACCGGTTTTCCCGGTAATCCGTATTTGAA (site TAGCTAGCTCT) | 0.00536
TAGCTAGCATGGACCGGTTTTCCCGGTAATCCGTATTTGAA (site TAGCTAGCTGT) | 1.28
TAGCTAGCATGGACCGGTTTTCCCGGTAATCCGTATTTGAA (site TAGCTAGCTTA) | 0.00377
TAGCTAGCATGGACCGGTTTTCCCGGTAATCCGTATTTGAA (site TAGCTAGCTTC) | 0.504
TAGCTAGCATGGACCGGTTTTCCCGGTAATCCGTATTTGAA (site TAGCTAGCTTG) | 0.0037
TAGCTAGCATGGACCGGTTTTCCCGGTAATCCGTATTTGAA (site TAGCTAGCTTT) | 0.858
TAGCTAGCATGGACCGGTTTTCCCGGTAATCCGTATTTGAA (site TAGCTATCTTT) | 0.588
TAGCTAGCATGGACCGGTTTTCCCGGTAATCCGTATTTGAA (site TAGCTCGCTTT) | 0.0026
TAGCTAGCATGGACCGGTTTTCCCGGTAATCCGTATTTGAA (site TAGCTGGCTTT) | 0.0168
TAGCTAGCATGGACCGGTTTTCCCGGTAATCCGTATTTGAA (site TAGCTTGCTTT) | 0.00961
TAGCTAGCATGGACCGGTTTTCCCGGTAATCCGTATTTGAA (site TAGGTAGCTTT) | 0.0179
TAGCTAGCATGGACCGGTTTTCCCGGTAATCCGTATTTGAA (site TAGTTAGCTTT) | 0.0249
TAGCTAGCATGGACCGGTTTTCCCGGTAATCCGTATTTGAA (site TATCTAGCTTT) | 0.0236
TAGCTAGCATGGACCGGTTTTCCCGGTAATCCGTATTTGAA (site TCGCTAGCTTT) | 0.00871

Sequence | recombinant UMI read abundance (log10)
TAGCTAGCATGGACCGGTTTTCCCGGTAATCCGTATTTGAA (site TGGCTAGCTTT) | 0.0087
TAGCTAGCATGGACCGGTTTTCCCGGTAATCCGTATTTGAA (site TTGCTAGCTTT) | 0.00459
TAGCTGACATGGACCGGTTTTCCCGGTAATCCGTATTTGCG (site TAGCTGACTCG) | 1.5
TAGGAATCATGGACCGGTTTTCCCGGTAATCCGTATTTGCA (site TAGGAATCTAG) | 1.62
TAGGAATCATGGACCGGTTTTCCCGGTAATCCGTATTTGCA (site TAGGAATCTCG) | 1.64
TAGGAATCATGGACCGGTTTTCCCGGTAATCCGTATTTGCA (site TAGGAATCTGG) | 0.896
TAGGAATCATGGACCGGTTTTCCCGGTAATCCGTATTTGCA (site TAGGAATCTTG) | 2.82
TAGGAATCATGGACCGGTTTTCCCGGTAATCCGTATTTGTG (site TAGGAATCTCA) | 3.2
TAGGAATCATGGACCGGTTTTCCCGGTAATCCGTATTTGTG (site TAGGAATCTCC) | 2.13
TAGGAATCATGGACCGGTTTTCCCGGTAATCCGTATTTGTG (site TAGGAATCTCG) | 2.63
TAGGAATCATGGACCGGTTTTCCCGGTAATCCGTATTTGTG (site TAGGAATCTCT) | 2.59
TAGGAGTCATGGACCGGTTTTCCCGGTAATCCGTATTTGCG (site TAGGAATCTCG) | 3.12
TAGGAGTCATGGACCGGTTTTCCCGGTAATCCGTATTTGCG (site TAGGACTCTCG) | 1.24
TAGGAGTCATGGACCGGTTTTCCCGGTAATCCGTATTTGCG (site TAGGAGTCTCG) | 3.24
TAGGAGTCATGGACCGGTTTTCCCGGTAATCCGTATTTGCG (site TAGGATTCTCG) | 0.951
TAGGCCGCATGGACCGGTTTTCCCGGTAATCCGTATTTGTG (site CCATTGACTTT) | 0.00523
TAGGCTTCATGGACCGGTTTTCCCGGTAATCCGTATTTGGT (site TAGACTTCTAC) | 0.0923
TAGGCTTCATGGACCGGTTTTCCCGGTAATCCGTATTTGGT (site TAGCCTTCTAC) | 0.0146
TAGGCTTCATGGACCGGTTTTCCCGGTAATCCGTATTTGGT (site TAGGCTTCTAC) | 1.54
TAGGCTTCATGGACCGGTTTTCCCGGTAATCCGTATTTGGT (site TAGTCTTCTAC) | 0.0132
TAGGGAACATGGACCGGTTTTCCCGGTAATCCGTATTTGGC (site TAGGGAACTGC) | 1.53
TAGGTTGCATGGACCGGTTTTCCCGGTAATCCGTATTTGTA (site TAGGTTGCTTA) | 2.39
TAGTAACCATGGACCGGTTTTCCCGGTAATCCGTATTTGAG (site TAGTAACCTCT) | 0.00753
TAGTGCCCATGGACCGGTTTTCCCGGTAATCCGTATTTGGC (site TAGTGCCCTGC) | 0
TAGTGTTCATGGACCGGTTTTCCCGGTAATCCGTATTTGCA (site TAGTGTTCTTG) | 2.49

Sequence | recombinant UMI read abundance (log10)
TAGTTGGCATGGACCGGTTTTCCCGGTAATCCGTATTTGGG (site TAGTTGGCTCC) | 0.0252
TATAAGCCATGGACCGGTTTTCCCGGTAATCCGTATTTGCC (site TATAAGCCTGG) | 0
TATAGCGCATGGACCGGTTTTCCCGGTAATCCGTATTTGGC (site TATAGCGCTGC) | 2.48
TATAGGCCATGGACCGGTTTTCCCGGTAATCCGTATTTGAG (site TATAGGCCTCT) | 0.0191
TATCATTCATGGACCGGTTTTCCCGGTAATCCGTATTTGGG (site TATCATTCTCC) | 0.00534
TATCCGTCATGGACCGGTTTTCCCGGTAATCCGTATTTGAA (site TATCCGTCTTT) | 0.0803
TATGAGTCATGGACCGGTTTTCCCGGTAATCCGTATTTGCT (site TATGAGTCTAG) | 2.74
TATGCAACATGGACCGGTTTTCCCGGTAATCCGTATTTGTT (site TATGCAACTAA) | 0.0144
TATGCACCATGGACCGGTTTTCCCGGTAATCCGTATTTGGT (site TATGCACCTAC) | 0.0323
TATGTGTCATGGACCGGTTTTCCCGGTAATCCGTATTTGAC (site AATGTGTCTGT) | 0
TATGTGTCATGGACCGGTTTTCCCGGTAATCCGTATTTGAC (site CATGTGTCTGT) | 0
TATGTGTCATGGACCGGTTTTCCCGGTAATCCGTATTTGAC (site GATGTGTCTGT) | 0
TATGTGTCATGGACCGGTTTTCCCGGTAATCCGTATTTGAC (site TATGTGTCTGT) | 0.884
TATTACACATGGACCGGTTTTCCCGGTAATCCGTATTTGCC (site TATTACACTGG) | 2.37
TATTAGACATGGACCGGTTTTCCCGGTAATCCGTATTTGCG (site TATTAGACTCG) | 1.03
TATTGGGCATGGACCGGTTTTCCCGGTAATCCGTATTTGTG (site TATTAGGCTCA) | 0.0242
TATTGGGCATGGACCGGTTTTCCCGGTAATCCGTATTTGTG (site TATTCGGCTCA) | 0.00589
TATTGGGCATGGACCGGTTTTCCCGGTAATCCGTATTTGTG (site TATTGGGCTCA) | 0.226
TATTGGGCATGGACCGGTTTTCCCGGTAATCCGTATTTGTG (site TATTTGGCTCA) | 0.0234
TATTGTGCATGGACCGGTTTTCCCGGTAATCCGTATTTGGT (site TATTGTGCTAC) | 0.401
TATTTGTCATGGACCGGTTTTCCCGGTAATCCGTATTTGTG (site TATTTGACTCA) | 0.0169
TATTTGTCATGGACCGGTTTTCCCGGTAATCCGTATTTGTG (site TATTTGCCTCA) | 0.0214
TATTTGTCATGGACCGGTTTTCCCGGTAATCCGTATTTGTG (site TATTTGGCTCA) | 0.0347
TATTTGTCATGGACCGGTTTTCCCGGTAATCCGTATTTGTG (site TATTTGTCTCA) | 0.515
TATTTTGCATGGACCGGTTTTCCCGGTAATCCGTATTTGTG (site TATTTAGCTCA) | 0.00468
